Test results as given in patent US7148380B2, “Bio-energy muscle relaxants” (priority 2000, dated 2006).

Columns and labels:
[1] = system: contraction of bronchial smooth muscle induced by histamine; assay: By-pass-airflow pressure, bronchial smooth muscle contraction induced by histamine; type: in vivo, guinea pig
Protocol: The animals were divided as saline, BDM, and aminophylline groups. Each animal was anesthetized with pentobarbital (30 mg/kg, I.P.), the trachea was intubated and connected to respirator. Tidal volume and frequency of the respirator were adjusted to 6˜10 ml and 60˜70 breath/min. respectively.
A small hole on chest wall of the animal was made, resulting in pneumothorax to inhibit spontaneous respiration of the animal. A modified device was used for measuring by-pass-airflow pressure of the airway, reflecting alteration in airway resistance, therefore evaluating status of bronchial smooth muscle contraction induced by histamine. The by-pass-airflow pressures were measured before and at 10, 20, 30, 40, 50, and 60 min after administration of histamine (5˜10 μg, I.P.) as control values. […] Changes in by-pass-airflow pressure caused by histamine before and after saline, BDM, or aminophylline were compared.
A percentage of changes in the airflow pressures before and after administration of the histamine at different time points, defined as the change rate, was calculated according to formula 1 below: Change rate (%)=(PA−PB)/PB×100% (1)
where PA is the airflow pressure after histamine, PB is the pressure before histamine. Values were expressed as mean±SD, paired or group “t” test was used upon the requirement for the statistical analysis. The results were considered significant when p<0.05.

[2] = system: drug-induced asthma in guinea pig; assay: Asthmatic latent period / drug-induced asthma in guinea pig (acetylcholine + histamine inhalation); type: in vivo
Protocol: Sensitive animals were chosen by aerosolized inhalation of asthma-inducing agents—a mixed solution of 2% acetylcholine with 0.1% histamine for 15 sec., inducing an asthmatic attack with severe difficulty in respiration and finally resulting in the animal body turned down. The time from beginning of the inhalation to animal turned down was recorded as an index named “turned down time” or asthmatic latent period. Those animals with turned down time less than 120 s. were selected for the study next day. […] Then the latent period was recorded for each of the animals.
(1) Screening animals: animal was put in a glass container, a mixed solution of 2% acetylcholine and 0.1% histamine was nebulized with a pressure of 400 mmHg and inhaled by the animals for 15 sec. Following the end of the inhalation, the time between beginning of the inhalation and the animal turned down due to bronchial spasm and dyspnea was recorded as asthmatic latent period. Those animals with a latent period beyond 120 s. were excluded, and those with a latent period less than 120 s were selected for study the next day.
(4) Measuring: Repeat the inhalation at 30 min, 4 h, and 24 h after administration of the drugs respectively. Asthmatic latent period was recorded, 6 minutes were taken as the maximum, and values beyond 6 min were counted as 6 min.
(5) Data analysis: Values were expressed as mean±sd, and paired for “t” and chi-square tests. Significance was considered to be established when p<0.05.

[3] = after drug 10 ml/kg I.P., 10 min after histamine
[4] = after drug 10 ml/kg I.P., 20 min after histamine
[5] = after drug 10 ml/kg I.P., 30 min after histamine
[6] = after drug 10 ml/kg I.P., 40 min after histamine
[7] = after drug 10 ml/kg I.P., 50 min after histamine
[8] = after drug 10 ml/kg I.P., 60 min after histamine
[9] = before drug administration, 10 min after histamine
[10] = before drug administration, 20 min after histamine
[11] = before drug administration, 30 min after histamine
[12] = before drug administration, 40 min after histamine
[13] = before drug administration, 50 min after histamine
[14] = before drug administration, 60 min after histamine
[15] = 10 ml/kg I.P. (BDM 0.2M, aminophylline 1.25%), mean±sd

SMILES: Cn1c(=O)c2[nH]cnc2n(C)c1=O [Aminophylline, aminophylline, reference compound]
- by-pass-airflow pressure, A, B. Hist ([1]; after drug 10 ml/kg I.P. (BDM 0.2M, aminophylline 1.25%), before histamine): 4.24 ± 1.18 Kpa
- by-pass-airflow pressure, A, Hist 10 min. [1, 3]: 4.36 ± 1.10 Kpa
- changing rate of by-pass-airflow pressure, A, Hist 10 min. [1, 3]: −7.68%
- by-pass-airflow pressure, A, Hist 20 min. [1, 4]: 4.18 ± 0.86 Kpa
- changing rate of by-pass-airflow pressure, A, Hist 20 min. [1, 4]: −10.62%
- by-pass-airflow pressure, A, Hist 30 min. [1, 5]: 4.20 ± 0.92 Kpa
- changing rate of by-pass-airflow pressure, A, Hist 30 min. [1, 5]: −10.40%
- by-pass-airflow pressure, A, Hist 40 min. [1, 6]: 4.15 ± 0.88 Kpa
- changing rate of by-pass-airflow pressure, A, Hist 40 min. [1, 6]: −11.38%
- by-pass-airflow pressure, A, Hist 50 min. [1, 7]: 4.10 ± 0.92 Kpa
- changing rate of by-pass-airflow pressure, A, Hist 50 min. [1, 7]: −12.73%
- by-pass-airflow pressure, A, Hist 60 min. [1, 8]: 4.02 ± 0.92 Kpa
- changing rate of by-pass-airflow pressure, A, Hist 60 min. [1, 8]: −14.25%
- histamine-induced increase in the airflow pressure ([1]; at 10, 20, 30, 40, 50, and 60 min after administration, p<0.01 or p<0.05): significantly reduce
- by-pass-airflow pressure, B, Hist 10 min. [1, 9]: 4.51 ± 0.65 Kpa
- changing rate of by-pass-airflow pressure, B, Hist 10 min. [1, 9]: 8.37%
- by-pass-airflow pressure, B, Hist 20 min. [1, 10]: 4.34 ± 0.73 Kpa
- changing rate of by-pass-airflow pressure, B, Hist 20 min. [1, 10]: 3.93%
- by-pass-airflow pressure, B, Hist 30 min. [1, 11]: 4.40 ± 0.79 Kpa
- changing rate of by-pass-airflow pressure, B, Hist 30 min. [1, 11]: 5.31%
- by-pass-airflow pressure, B, Hist 40 min. [1, 12]: 4.42 ± 0.80 Kpa
- changing rate of by-pass-airflow pressure, B, Hist 40 min. [1, 12]: 5.80%
- by-pass-airflow pressure, B, Hist 50 min. [1, 13]: 4.42 ± 0.86 Kpa
- changing rate of by-pass-airflow pressure, B, Hist 50 min. [1, 13]: 5.63%
- by-pass-airflow pressure, B, Hist 60 min. [1, 14]: 4.46 ± 0.87 Kpa
- changing rate of by-pass-airflow pressure, B, Hist 60 min. [1, 14]: 6.54%
- by-pass-airflow pressure, B, B. Hist ([1]; before drug administration, before histamine): 4.18 ± 0.72 Kpa
- changing rate of by-pass-airflow pressure, D, Hist 10 min. ([1]; difference A minus B, 10 min after histamine): −16.05%
- changing rate of by-pass-airflow pressure, D, Hist 20 min. ([1]; difference A minus B, 20 min after histamine): −14.55%
- changing rate of by-pass-airflow pressure, D, Hist 30 min. ([1]; difference A minus B, 30 min after histamine): −15.71%
- changing rate of by-pass-airflow pressure, D, Hist 40 min. ([1]; difference A minus B, 40 min after histamine): −17.19%
- changing rate of by-pass-airflow pressure, D, Hist 50 min. ([1]; difference A minus B, 50 min after histamine): −18.36%
- changing rate of by-pass-airflow pressure, D, Hist 60 min. ([1]; difference A minus B, 60 min after histamine): −20.79%
- Asthamatic Latent Period, 30 minutes after administration ([2]; 10 ml/kg I.P. (BDM 0.2M, aminophylline 1.25%), maximum 6 min, mean±sd): 298.2 ± 138.2 s
- Asthamatic Latent Period, 4 hours after administration [2, 15]: 216.6 ± 112.5 s
- Asthamatic Latent Period, 24 hours after administration [2, 15]: 96 ± 26.9 s
- Incidence of asthmatic spasm ([2]; 30 min after administration, down from 100%, not significant): 40%
- Asthamatic Latent Period, before administration ([2]; baseline before drug, 10 ml/kg I.P. (BDM 0.2M, aminophylline 1.25%), mean±sd): 70.6 ± 27.7 s
- Effect on the latent period ([2]; thirty minutes and 4 h after administration, p<0.05): significantly extended
